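96-well plates; 48 h exposure; 5 concentrations. Endpoints by linear interpolation between flanking doses. Not reached: highest tested concentration assigned. TGI denotes the concentration required for complete inhibition of growth.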
Key:
Test in all cases: growth of human tumour cells (NCI), 48 h
UACC-257 melanoma = system: UACC-257 melanoma
EKVX NSCLC = system: EKVX NSCLC
MALME-3M melanoma = system: MALME-3M melanoma
SK-OV-3 ovarian = system: SK-OV-3 ovarian
RPMI-8226 leukemia = system: RPMI-8226 leukemia
T-47D breast = system: T-47D breast
OVCAR-4 ovarian = system: OVCAR-4 ovarian
LOX IMVI melanoma = system: LOX IMVI melanoma
OVCAR-8 ovarian = system: OVCAR-8 ovarian
HT29 colon = system: HT29 colon
SF-295 CNS = system: SF-295 CNS
SK-MEL-2 melanoma = system: SK-MEL-2 melanoma
SN12C renal = system: SN12C renal
MCF7 breast = system: MCF7 breast
OVCAR-3 ovarian = system: OVCAR-3 ovarian
BT-549 breast = system: BT-549 breast
SNB-75 CNS = system: SNB-75 CNS
SR leukemia = system: SR leukemia

CC1(c2sccc2Cl)CC(c2sccc2Cl)=C(C#N)C(=C(C#N)C#N)N1 (stereo not given) was tested, and the TGI (UACC-257 melanoma) was 39.2 µM, the TGI (EKVX NSCLC) was 34 µM and the TGI (MALME-3M melanoma) was 32.8 µM. For the same compound, the TGI (SK-OV-3 ovarian) was 31.5 µM, the TGI (RPMI-8226 leukemia) was 88 µM and the TGI (T-47D breast) was 42.1 µM. For the same compound, the TGI (OVCAR-4 ovarian) was 66.1 µM, the TGI (LOX IMVI melanoma) was 37.8 µM and the TGI (OVCAR-8 ovarian) was 39 µM. It also gave a TGI (HT29 colon) of 54.6 µM, a TGI (SF-295 CNS) of 35.2 µM and a TGI (SK-MEL-2 melanoma) of 39.3 µM. The TGI (SN12C renal) was 42.9 µM, the TGI (MCF7 breast) was 48.5 µM and the TGI (OVCAR-3 ovarian) was 29.8 µM. For the same compound, the TGI (BT-549 breast) was 32.3 µM.

O=C(Cc1ccccc1F)NC1=C(Cl)C(=O)c2ccccc2C1=O showed a TGI (UACC-257 melanoma) of 4.32 µM, a TGI (EKVX NSCLC) of 18 µM and a TGI (MALME-3M melanoma) of 5 µM. It also gave a TGI (SK-OV-3 ovarian) of 13.7 µM, a TGI (RPMI-8226 leukemia) of 19.1 µM and a TGI (T-47D breast) of 5.8 µM. It also gave a TGI (OVCAR-4 ovarian) of 5.65 µM, a TGI (LOX IMVI melanoma) of 5.99 µM and a TGI (OVCAR-8 ovarian) of 9.36 µM. The TGI (HT29 colon) was 19.5 µM, the TGI (SF-295 CNS) was 11.8 µM and the TGI (SNB-75 CNS) was 8.06 µM. It also gave a TGI (SK-MEL-2 melanoma) of 2.98 µM, a TGI (SN12C renal) of 16.8 µM and a TGI (MCF7 breast) of 21.4 µM. It also gave a TGI (OVCAR-3 ovarian) of 2.9 µM and a TGI (BT-549 breast) of 7.26 µM.

In the case of COC(=O)N1CC(=O)C(C(=O)NC23CC4CC(CC(C4)C2)C3)C1 (stereo not given), the TGI (UACC-257 melanoma) is reported as over 100 µM, the TGI (SR leukemia) is reported as over 100 µM and the TGI (MALME-3M melanoma) is reported as over 100 µM. For the same compound, the TGI (RPMI-8226 leukemia) was over 100 µM, the TGI (T-47D breast) was over 100 µM and the TGI (OVCAR-4 ovarian) was over 100 µM. The TGI (OVCAR-8 ovarian) was over 100 µM, the TGI (HT29 colon) was over 100 µM and the TGI (SF-295 CNS) was over 100 µM. For the same compound, the TGI (SK-MEL-2 melanoma) was over 100 µM, the TGI (MCF7 breast) was over 100 µM and the TGI (OVCAR-3 ovarian) was over 100 µM. It also gave a TGI (BT-549 breast) of over 100 µM.

O=C1c2ccccc2C(=O)N1CCSCC(CO)SCCN1C(=O)c2ccccc2C1=O (stereo not given) was tested, and the TGI (UACC-257 melanoma) was over 100 µM, the TGI (SR leukemia) was over 100 µM and the TGI (EKVX NSCLC) was over 100 µM. It also gave a TGI (MALME-3M melanoma) of over 100 µM, a TGI (SK-OV-3 ovarian) of over 100 µM and a TGI (RPMI-8226 leukemia) of over 100 µM. For the same compound, the TGI (T-47D breast) was over 100 µM, the TGI (OVCAR-4 ovarian) was over 100 µM and the TGI (LOX IMVI melanoma) was over 100 µM. For the same compound, the TGI (OVCAR-8 ovarian) was over 100 µM, the TGI (HT29 colon) was over 100 µM and the TGI (SF-295 CNS) was over 100 µM. It also gave a TGI (SK-MEL-2 melanoma) of over 100 µM, a TGI (SN12C renal) of over 100 µM and a TGI (MCF7 breast) of over 100 µM. For the same compound, the TGI (BT-549 breast) was over 100 µM.

COC(=O)C1CCC(=O)N1C(c1cc(OC)c(OC)c(OC)c1)c1cc(OC)c(OC)c(OC)c1 (stereo not given) gave a TGI (UACC-257 melanoma) of over 100 µM, a TGI (SR leukemia) of over 100 µM and a TGI (EKVX NSCLC) of over 100 µM. For the same compound, the TGI (SK-OV-3 ovarian) was over 100 µM, the TGI (RPMI-8226 leukemia) was over 100 µM and the TGI (T-47D breast) was over 100 µM. The TGI (LOX IMVI melanoma) was over 100 µM, the TGI (OVCAR-8 ovarian) was over 100 µM and the TGI (HT29 colon) was over 100 µM. For the same compound, the TGI (SF-295 CNS) was over 100 µM, the TGI (SNB-75 CNS) was over 100 µM and the TGI (SK-MEL-2 melanoma) was over 100 µM. It also gave a TGI (SN12C renal) of over 100 µM, a TGI (MCF7 breast) of over 100 µM and a TGI (OVCAR-3 ovarian) of over 100 µM.

Compound CC(=O)Oc1cc(S(=O)(=O)Nc2n[nH]c(Nc3ccc(C)cc3)n2)c(S)cc1Cl has a TGI (UACC-257 melanoma) of over 100 µM, a TGI (SR leukemia) of over 100 µM and a TGI (EKVX NSCLC) of over 100 µM. It also gave a TGI (MALME-3M melanoma) of over 100 µM, a TGI (RPMI-8226 leukemia) of over 100 µM and a TGI (T-47D breast) of over 100 µM. The TGI (OVCAR-4 ovarian) was over 100 µM, the TGI (LOX IMVI melanoma) was over 100 µM and the TGI (OVCAR-8 ovarian) was over 100 µM. The TGI (HT29 colon) was over 100 µM, the TGI (SF-295 CNS) was over 100 µM and the TGI (SK-MEL-2 melanoma) was over 100 µM. The TGI (SN12C renal) was over 100 µM, the TGI (OVCAR-3 ovarian) was over 100 µM and the TGI (BT-549 breast) was over 100 µM.

Compound N#CC1(C#N)NC(c2ccccc2)C(C#N)(C#N)NC1c1ccccc1 (stereo not given) has a TGI (UACC-257 melanoma) of over 100 µM, a TGI (EKVX NSCLC) of over 100 µM and a TGI (MALME-3M melanoma) of over 100 µM. For the same compound, the TGI (SK-OV-3 ovarian) was over 100 µM, the TGI (RPMI-8226 leukemia) was over 100 µM and the TGI (T-47D breast) was over 100 µM. It also gave a TGI (OVCAR-4 ovarian) of over 100 µM, a TGI (LOX IMVI melanoma) of over 100 µM and a TGI (OVCAR-8 ovarian) of over 100 µM. The TGI (HT29 colon) was over 100 µM, the TGI (SF-295 CNS) was over 100 µM and the TGI (SNB-75 CNS) was over 100 µM. For the same compound, the TGI (SK-MEL-2 melanoma) was over 100 µM, the TGI (SN12C renal) was over 100 µM and the TGI (MCF7 breast) was over 100 µM. The TGI (OVCAR-3 ovarian) was over 100 µM and the TGI (BT-549 breast) was over 100 µM.

With NS(=O)(=O)c1nnc(NC(=O)C23CC4CC(CC(C4)C2)C3)s1 the TGI (UACC-257 melanoma) was over 100 µM, the TGI (SR leukemia) was over 100 µM and the TGI (EKVX NSCLC) was over 100 µM. The TGI (MALME-3M melanoma) was over 100 µM, the TGI (SK-OV-3 ovarian) was over 100 µM and the TGI (RPMI-8226 leukemia) was over 100 µM. It also gave a TGI (T-47D breast) of over 100 µM, a TGI (OVCAR-4 ovarian) of 3.74 µM and a TGI (LOX IMVI melanoma) of over 100 µM. It also gave a TGI (OVCAR-8 ovarian) of over 100 µM, a TGI (SF-295 CNS) of over 100 µM and a TGI (SK-MEL-2 melanoma) of over 100 µM. For the same compound, the TGI (SN12C renal) was over 100 µM, the TGI (MCF7 breast) was over 100 µM and the TGI (OVCAR-3 ovarian) was over 100 µM. It also gave a TGI (BT-549 breast) of over 100 µM.

— PubChem BioAssay (NCI)
